# Source: PubChem BioAssay AID1963858 (Molecular Pharmacology Branch, DTP, NCI, 2024)
# Tested on: HOP-62 multicell spheroids with HUVEC/MSC, viability
# Assay: Anticancer human tumor HOP-62 cell line growth inhibition [KRAS2];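 also: viability read after a week of compound exposure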;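 as to viability, T/C: 100% = DMSO vehicle-treated spheroids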
# Conditions: for IC50: curve of first compound; for viability, T/C: stronger effect = lower value
# Outline: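 KRAS-mutant tumor cells were grown as spheroids with HUVEC endothelial cells and human MSCs as stroma. Targeted agents were tested alone and with KRAS pathway inhibitors. Doses started at or near clinical Cmax, or 10 microM, descending half-log.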
# [1] = second compound 0.0316 µM, first compound 0.0316 µM
# [2] = second compound 0.0316 µM, first compound 0.1 µM
# [3] = second compound 0.0316 µM, first compound 0.316 µM
# [4] = second compound 0.0316 µM, first compound 1 µM
# [5] = second compound 0.0316 µM, first compound 3.16 µM
# [6] = second compound 0.0316 µM, first compound 10 µM
# [7] = second compound 0.1 µM, first compound 0.0316 µM
# [8] = second compound 0.1 µM, first compound 0.1 µM
# [9] = second compound 0.1 µM, first compound 0.316 µM
# [10] = second compound 0.1 µM, first compound 1 µM
# [11] = second compound 0.1 µM, first compound 3.16 µM
# [12] = second compound 0.1 µM, first compound 10 µM
# [13] = second compound 0.316 µM, first compound 0.0316 µM
# [14] = second compound 0.316 µM, first compound 0.1 µM
# [15] = second compound 0.316 µM, first compound 0.316 µM
# [16] = second compound 0.316 µM, first compound 1 µM
# [17] = second compound 0.316 µM, first compound 3.16 µM
# [18] = second compound 0.316 µM, first compound 10 µM
# [19] = second compound 1 µM, first compound 0.0316 µM
# [20] = second compound 1 µM, first compound 0.1 µM
# [21] = second compound 1 µM, first compound 0.316 µM
# [22] = second compound 1 µM, first compound 1 µM
# [23] = second compound 1 µM, first compound 3.16 µM
# [24] = second compound 1 µM, first compound 10 µM
# [25] = second compound 3.16 µM, first compound 0.0316 µM
# [26] = second compound 3.16 µM, first compound 0.1 µM
# [27] = second compound 3.16 µM, first compound 0.316 µM
# [28] = second compound 3.16 µM, first compound 1 µM
# [29] = second compound 3.16 µM, first compound 3.16 µM
# [30] = second compound 3.16 µM, first compound 10 µM
SMILES,IC50 (second compound 0.1 µM),IC50 (second compound 0.316 µM),IC50 (second compound 1 µM),IC50 (second compound 3.16 µM),"viability, T/C [7]","viability, T/C [8]","viability, T/C [9]","viability, T/C [10]","viability, T/C [11]","viability, T/C [13]","viability, T/C [14]","viability, T/C [15]","viability, T/C [16]","viability, T/C [17]","viability, T/C [19]","viability, T/C [20]","viability, T/C [21]","viability, T/C [22]","viability, T/C [23]","viability, T/C [25]",also measured
CC1OCC2(CCN(c3cnc(Sc4ccnc(N)c4Cl)c(N)n3)CC2)C1N (stereo not given) + C=CC(=O)N1CCN(c2nc(OCC3CCCN3C)nc3c2CCN(c2cccc4cccc(C)c24)C3)CC1CC#N,36.8 nM,< 31.6 nM,< 31.6 nM,< 31.6 nM,53.5%,29.1%,19.9%,12.8%,11.5%,40%,30.7%,13.9%,10.5%,10.2%,24%,16%,11.8%,8.98%,7.63%,4.76%,"IC50 (second compound 0.0316 µM): 69.7 nM; viability, T/C [1]: 54.3%; viability, T/C [2]: 49.1%; viability, T/C [3]: 27%; viability, T/C [4]: 19.5%; viability, T/C [5]: 11.9%; viability, T/C [6]: 12.7%; viability, T/C [12]: 12.2%; viability, T/C [18]: 10.6%; viability, T/C [24]: 7.61%; viability, T/C [26]: 1.76%; viability, T/C [27]: 1.12%; viability, T/C [28]: 0.88%; viability, T/C [29]: 0.72%; viability, T/C [30]: 0.51%"
Cn1nccc1Nc1nccc(-c2cc3c(s2)C(C)(C)N(CCN2CCOCC2)C3=O)n1 + C=CC(=O)N1CCN(c2nc(OCC3CCCN3C)nc3c2CCN(c2cccc4cccc(C)c24)C3)CC1CC#N,144 nM,< 31.6 nM,< 31.6 nM,< 31.6 nM,58.2%,53%,39.3%,17.1%,17.2%,45.3%,39.2%,18.1%,18%,13.6%,27.7%,30.3%,13.1%,12.3%,11.3%,2.34%,"IC50 (second compound 0.0316 µM): 265 nM; viability, T/C [1]: 84.1%; viability, T/C [2]: 68%; viability, T/C [3]: 50.4%; viability, T/C [4]: 20.3%; viability, T/C [5]: 22.4%; viability, T/C [6]: 22.7%; viability, T/C [12]: 17%; viability, T/C [18]: 16%; viability, T/C [24]: 12.6%; viability, T/C [26]: 0.65%; viability, T/C [27]: 1.84%; viability, T/C [28]: 4.87%; viability, T/C [29]: 4.21%; viability, T/C [30]: 0.35%"
CC(=O)OC12COC1CC(O)C1(C)C(=O)C(O)C3=C(C)C(OC(=O)C(O)C(NC(=O)OC(C)(C)C)c4ccccc4)CC(O)(C(OC(=O)c4ccccc4)C21)C3(C)C (stereo not given) + CC1OCC2(CCN(c3cnc(Sc4ccnc(N)c4Cl)c(N)n3)CC2)C1N,< 10 nM,< 10 nM,< 10 nM,< 10 nM,34.9%,35.6%,37.6%,38.2%,40.1%,33%,31.2%,29.8%,33.1%,36.4%,33.8%,32.7%,34.5%,34.8%,45%,22.3%,"IC50 (second compound 10 µM): < 10 nM; viability, T/C (second compound 0.1 µM, first compound 0.01 µM): 35.9%; viability, T/C (second compound 0.316 µM, first compound 0.01 µM): 31.2%; viability, T/C (second compound 1 µM, first compound 0.01 µM): 37.5%; viability, T/C (second compound 3.16 µM, first compound 0.01 µM): 25.5%; viability, T/C [26]: 39.3%; viability, T/C [27]: 25.5%; viability, T/C [28]: 25.6%; viability, T/C [29]: 26.9%; viability, T/C (second compound 10 µM, first compound 0.01 µM): 23%; viability, T/C (second compound 10 µM, first compound 0.0316 µM): 18.8%; viability, T/C (second compound 10 µM, first compound 0.1 µM): 35.4%; viability, T/C (second compound 10 µM, first compound 0.316 µM): 23.5%; viability, T/C (second compound 10 µM, first compound 1 µM): 25.7%; viability, T/C (second compound 10 µM, first compound 3.16 µM): 29.4%"
